Measurements published in the supplement of paper PMC6045584.
± gives the standard deviation of the averaged measurements.

How the values were obtained:
EVEROLIMUS = compound: CO[C@H]1C[C@@H]2CC[C@@H](C)[C@@](O)(O2)C(=O)C(=O)N2CCCC[C@H]2C(=O)O[C@H]([C@H](C)C[C@@H]2CC[C@@H](OCCO)[C@H](OC)C2)CC(=O)[C@H](C)/C=C(\C)[C@@H](O)[C@@H](OC)C(=O)[C@H](C)C[C@H](C)/C=C/C=C/C=C/1C [EVEROLIMUS]; experiment: surviving fraction relative to DMSO-only wells; higher = less growth inhibition; details: exposure time: 5 days
Method in brief: (§1)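 Luminescence normalised to the median of DMSO-only wells defines surviving fraction, with viability read by CellTiter-Glo. Signal was recorded after 10 minutes at room temperature, once log-phase tumour cell lines seeded at 250–500 cells per well in 384-well plates had spent 24 hours settling and then five days under continuous exposure to inhibitors at 0.5, 1, 5, 10, 50, 100, 500 and 1000 nM.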

AZD4547 = compound: COc1cc(CCc2cc(NC(=O)c3ccc(N4CC(C)NC(C)C4)cc3)n[nH]2)cc(OC)c1 [AZD4547]; experiment: as above; details: exposure time: 5 days
Method in brief: as §1

Test System	surviving fraction (EVEROLIMUS; 0.5 nM)	surviving fraction (EVEROLIMUS; 1 nM)	surviving fraction (EVEROLIMUS; 5 nM)	surviving fraction (EVEROLIMUS; 10 nM)	surviving fraction (EVEROLIMUS; 50 nM)	surviving fraction (EVEROLIMUS; 100 nM)	surviving fraction (EVEROLIMUS; 500 nM)	surviving fraction (EVEROLIMUS; 1000 nM)	surviving fraction (AZD4547; 0.5 nM)	surviving fraction (AZD4547; 1 nM)	surviving fraction (AZD4547; 5 nM)	surviving fraction (AZD4547; 10 nM)	surviving fraction (AZD4547; 50 nM)	surviving fraction (AZD4547; 100 nM)	surviving fraction (AZD4547; 500 nM)	surviving fraction (AZD4547; 1000 nM)
SG27 HEADNECK	1.1 ± 0.11	1.02 ± 0.019	0.978 ± 0.07	1.01 ± 0.046	0.871 ± 0.037	0.904 ± 0.11	0.92 ± 0.046	0.903 ± 0.08	0.937 ± 0.05	0.959 ± 0.078	0.864 ± 0.027	0.82 ± 0.024	0.68 ± 0.069	0.791 ± 0.032	0.849 ± 0.027	0.943 ± 0.098
SG28 HEADNECK	1.15 ± 0.028	1.09 ± 0.026	0.879 ± 0.063	0.8505 ± 0.005	0.809 ± 0.026	0.767 ± 0.0028	0.68 ± 0.0028	0.775 ± 0.0028	0.977 ± 0.13	1.14 ± 0.023	1.07 ± 0.093	0.982 ± 0.026	0.959 ± 0.048	1.04 ± 0.087	1.01 ± 0.077	0.706 ± 0.057
SG31 HEADNECK	0.931 ± 0.077	0.905 ± 0.11	0.638 ± 0.041	0.62 ± 0.01	0.641 ± 0.035	0.591 ± 0.1	0.539 ± 0.035	0.574 ± 0.047	1.21 ± 0.24	0.886 ± 0.12	0.994 ± 0.15	1.01 ± 0.17	0.836 ± 0.07	0.856 ± 0.12	0.883 ± 0.049	0.958 ± 0.051
SG32 HEADNECK	1.22 ± 0.19	1.22 ± 0.15	1.44 ± 0.47	1.01 ± 0.14	0.813 ± 0.052	0.601 ± 0.082	0.556 ± 0.025	0.499 ± 0.026	0.915 ± 0.25	1 ± 0.15	0.925 ± 0.2	0.938 ± 0.083	1.04 ± 0.031	0.946 ± 0.032	0.968 ± 0.3	0.659 ± 0.056
SG43 HEADNECK	1.18 ± 0.069	0.963 ± 0.053	0.943 ± 0.035	0.833 ± 0.13	0.874 ± 0.073	0.872 ± 0.13	0.908 ± 0.13	0.882 ± 0.071	1.02 ± 0.37	0.896 ± 0.17	0.714 ± 0.13	0.8 ± 0.13	0.759 ± 0.099	0.696 ± 0.14	0.94 ± 0.11	0.731 ± 0.074
SIHA CERVIX	0.822 ± 0.043	0.741 ± 0.04	0.64 ± 0.02	0.973 ± 0.61	0.605 ± 0.061	0.592 ± 0.049	0.498 ± 0.044	0.499 ± 0.008	1.06 ± 0.037	1.08 ± 0.05	1.11 ± 0.066	0.985 ± 0.025	0.839 ± 0.079	0.895 ± 0.054	0.786 ± 0.06	0.785 ± 0.052
SJSA1 BONE	1.58 ± 0.029	1.72 ± 0.099	1.5 ± 0.24	1.63 ± 0.07	1.38 ± 0.023	1.7 ± 0.048	1.38 ± 0.26	1.73 ± 0.11	1.01 ± 0.028	1.08 ± 0.08	1.08 ± 0.076	1.09 ± 0.046	1.14 ± 0.036	1.06 ± 0.05	1.01 ± 0.041	0.975 ± 0.075
SKBR3 BREAST	0.615 ± 0.048	0.561 ± 0.009	0.414 ± 0.021	0.389 ± 0.015	0.37 ± 0.03	0.316 ± 0.016	0.312 ± 0.021	0.295 ± 0.018	1.07 ± 0.14	1.2 ± 0.05	1.04 ± 0.079	1.09 ± 0.13	1.15 ± 0.13	1.26 ± 0.13	1.16 ± 0.18	1.11 ± 0.13
SNU475 LIVER	0.489 ± 0.032	0.447 ± 0.028	0.41 ± 0.042	0.364 ± 0.018	0.381 ± 0.028	0.35 ± 0.01	0.303 ± 0.0065	0.343 ± 0.017	0.956 ± 0.021	1.02 ± 0.059	0.95 ± 0.024	0.972 ± 0.056	0.925 ± 0.047	0.948 ± 0.019	0.939 ± 0.053	0.894 ± 0.012
SUM44 BREAST	0.853 ± 0.24	0.723 ± 0.16	0.718 ± 0.12	0.713 ± 0.12	0.819 ± 0.25	0.804 ± 0.16	0.723 ± 0.17	0.711 ± 0.11	0.9847 ± 0.0095	1.02 ± 0.029	0.985 ± 0.042	1.08 ± 0.064	1.11 ± 0.019	1.06 ± 0.011	1.09 ± 0.066	1.07 ± 0.05
SUM149 BREAST	0.844 ± 0.035	0.671 ± 0.098	0.536 ± 0.068	0.523 ± 0.079	0.462 ± 0.039	0.411 ± 0.04	0.403 ± 0.023	0.335 ± 0.03	0.989 ± 0.054	1.05 ± 0.11	1.08 ± 0.017	1 ± 0.034	1.04 ± 0.072	0.989 ± 0.05	1.02 ± 0.073	0.916 ± 0.047
SUM149.B1*.S BREAST	1.11 ± 0.032	1.06 ± 0.034	1.04 ± 0.039	0.754 ± 0.082	0.696 ± 0.16	0.681 ± 0.17	0.698 ± 0.13	0.653 ± 0.13	1.05 ± 0.013	1.083 ± 0.01	1.09 ± 0.04	1.09 ± 0.035	1.05 ± 0.083	1.07 ± 0.018	1.07 ± 0.054	1.07 ± 0.077
SUM159 BREAST	1.08 ± 0.023	1.09 ± 0.024	0.921 ± 0.047	0.851 ± 0.04	0.852 ± 0.06	0.807 ± 0.014	0.808 ± 0.022	0.784 ± 0.021	1.16 ± 0.24	1.19 ± 0.22	1.15 ± 0.2	1.2 ± 0.23	1.15 ± 0.2	1.14 ± 0.2	1.22 ± 0.27	1.1 ± 0.15
SYO1 SYNOVIAL	0.8921 ± 0.0089	0.834 ± 0.011	0.661 ± 0.016	0.602 ± 0.036	0.508 ± 0.011	0.508 ± 0.0081	0.484 ± 0.036	0.45 ± 0.022	0.897 ± 0.051	0.942 ± 0.022	0.744 ± 0.037	0.737 ± 0.021	0.664 ± 0.012	0.686 ± 0.02	0.637 ± 0.041	0.556 ± 0.046
T47D BREAST	0.892 ± 0.044	0.815 ± 0.047	0.686 ± 0.041	0.637 ± 0.021	0.646 ± 0.021	0.664 ± 0.038	0.6 ± 0.018	0.603 ± 0.022	1.02 ± 0.044	1.05 ± 0.013	1.06 ± 0.043	1.04 ± 0.034	1.09 ± 0.018	1.12 ± 0.025	1.18 ± 0.03	1.2 ± 0.073
U2OS BONE	0.954 ± 0.025	0.88 ± 0.039	0.7943 ± 0.0025	0.706 ± 0.039	0.678 ± 0.011	0.651 ± 0.029	0.633 ± 0.012	0.568 ± 0.03	0.992 ± 0.042	1.024 ± 0.0069	0.95 ± 0.015	0.901 ± 0.024	0.777 ± 0.013	0.759 ± 0.029	0.711 ± 0.012	0.648 ± 0.0075
VCAP PROSTATE	1.04 ± 0.079	1.04 ± 0.052	0.941 ± 0.1	0.984 ± 0.032	0.891 ± 0.15	0.898 ± 0.027	0.758 ± 0.078	0.766 ± 0.056	0.966 ± 0.078	0.976 ± 0.043	1.1 ± 0.12	0.989 ± 0.12	0.948 ± 0.07	1.07 ± 0.07	0.795 ± 0.048	0.705 ± 0.065
VP229 BREAST	0.812 ± 0.056	0.664 ± 0.048	0.645 ± 0.086	0.566 ± 0.051	0.584 ± 0.01	0.541 ± 0.058	0.507 ± 0.061	0.511 ± 0.045	1.32 ± 0.12	1.38 ± 0.049	1.42 ± 0.099	1.38 ± 0.065	1.25 ± 0.1	1.42 ± 0.092	1.4 ± 0.25	1.32 ± 0.033
YAMATO SYNOVIAL	1.07 ± 0.084	1.06 ± 0.074	1.06 ± 0.02	0.633 ± 0.022	0.5 ± 0.021	0.454 ± 0.0076	0.401 ± 0.014	0.473 ± 0.03	1.19 ± 0.024	1.22 ± 0.074	1.25 ± 0.038	1.22 ± 0.046	1.16 ± 0.064	1.08 ± 0.045	0.911 ± 0.05	0.816 ± 0.048
ZR751 BREAST	0.964 ± 0.017	0.715 ± 0.031	0.502 ± 0.054	0.5 ± 0.068	0.337 ± 0.014	0.353 ± 0.015	0.322 ± 0.038	0.339 ± 0.0066	0.902 ± 0.092	0.949 ± 0.095	0.838 ± 0.076	0.887 ± 0.041	0.837 ± 0.15	1.01 ± 0.029	1.05 ± 0.093	0.971 ± 0.059
